Experimental data: PubChem BioAssay AID1963852 (Molecular Pharmacology Branch, DTP, NCI, 2024)
pIC50: −log10 of the molar value.

System: 282377-053-R-J1-PDC complex spheroid viability
Assay: Anticancer human tumor 282377-053-R-J1-PDC patient-derived colon adenocarcinoma cell line growth inhibition [POLQ]
Conditions: for pIC50: curve of first compound; for viability, T/C: stronger effect = lower value
Summary of the method: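 Complex spheroid viability model combining PDC tumour cells with endothelial (HUVEC) and MSC stromal cells. Novobiocin, ART-558 or RP6685 were tested singly and in combination with standard and investigational anticancer drugs. Each was titrated in half-log steps from near clinical Cmax, or from 10 microM where Cmax was unknown.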

[1] = second compound 0.0316 µM, first compound 0.0316 µM
[2] = second compound 0.0316 µM, first compound 0.1 µM
[3] = second compound 0.0316 µM, first compound 0.316 µM
[4] = second compound 0.0316 µM, first compound 1 µM
[5] = second compound 0.1 µM, first compound 0.0316 µM
[6] = second compound 0.1 µM, first compound 0.1 µM
[7] = second compound 0.1 µM, first compound 0.316 µM
[8] = second compound 0.1 µM, first compound 1 µM
[9] = second compound 0.316 µM, first compound 0.0316 µM
[10] = second compound 0.316 µM, first compound 0.1 µM
[11] = second compound 0.316 µM, first compound 0.316 µM
[12] = second compound 0.316 µM, first compound 1 µM
[13] = second compound 1 µM, first compound 0.0316 µM
[14] = second compound 1 µM, first compound 0.1 µM
[15] = second compound 1 µM, first compound 0.316 µM
[16] = second compound 1 µM, first compound 1 µM
[17] = second compound 3.16 µM, first compound 0.0316 µM
[18] = second compound 3.16 µM, first compound 0.1 µM
[19] = second compound 3.16 µM, first compound 0.316 µM
[20] = second compound 3.16 µM, first compound 1 µM
[21] = second compound 10 µM, first compound 0.0316 µM
[22] = second compound 10 µM, first compound 0.1 µM
[23] = second compound 10 µM, first compound 0.316 µM
[24] = second compound 10 µM, first compound 1 µM
[25] = second compound 0.0316 µM, first compound 3.16 µM
[26] = second compound 0.0316 µM, first compound 10 µM
[27] = second compound 0.1 µM, first compound 3.16 µM
[28] = second compound 0.1 µM, first compound 10 µM
[29] = second compound 0.316 µM, first compound 3.16 µM
[30] = second compound 0.316 µM, first compound 10 µM
[31] = second compound 1 µM, first compound 3.16 µM
[32] = second compound 1 µM, first compound 10 µM
[33] = second compound 3.16 µM, first compound 3.16 µM
[34] = second compound 3.16 µM, first compound 10 µM
[35] = second compound 10 µM, first compound 3.16 µM
[36] = second compound 10 µM, first compound 10 µM
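Note: spheroids exposed to compounds for seven days.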
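Throughout, for viability, T/C: 100% = DMSO vehicle control viability.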

Compound: CCc1c2c(nc3ccc(O)cc13)-c1cc3c(c(=O)n1C2)COC(=O)[C@]3(O)CC + Nc1ccc(C#CCN(C(=O)Cc2ncc(C(F)(F)F)cc2C(F)(F)F)c2ccc(F)cc2)nn1
- pIC50 (second compound 0.0316 µM): < 6.00
- pIC50 (second compound 0.1 µM): 6.02
- pIC50 (second compound 0.316 µM): 6.09
- pIC50 (second compound 1 µM): < 6.00
- pIC50 (second compound 3.16 µM): < 6.00
- pIC50 (second compound 10 µM): 6.07
- viability, T/C (second compound 0.0316 µM, first compound 0.00316 µM): 99.3%
- viability, T/C (second compound 0.0316 µM, first compound 0.01 µM): 96.8%
- viability, T/C [1]: 80.7%
- viability, T/C [2]: 78.3%
- viability, T/C [3]: 69.9%
- viability, T/C [4]: 58.8%
- viability, T/C (second compound 0.1 µM, first compound 0.00316 µM): 92%
- viability, T/C (second compound 0.1 µM, first compound 0.01 µM): 84.3%
- viability, T/C [5]: 86%
- viability, T/C [6]: 72.8%
- viability, T/C [7]: 62.9%
- viability, T/C [8]: 49.4%
- viability, T/C (second compound 0.316 µM, first compound 0.00316 µM): 101%
- viability, T/C (second compound 0.316 µM, first compound 0.01 µM): 92.3%
- viability, T/C [9]: 75.4%
- viability, T/C [10]: 74.4%
- viability, T/C [11]: 60.4%
- viability, T/C [12]: 46.8%
- viability, T/C (second compound 1 µM, first compound 0.00316 µM): 107%
- viability, T/C (second compound 1 µM, first compound 0.01 µM): 91.7%
- viability, T/C [13]: 99.8%
- viability, T/C [14]: 66.9%
- viability, T/C [15]: 61.8%
- viability, T/C [16]: 51.6%
- viability, T/C (second compound 3.16 µM, first compound 0.00316 µM): 108%
- viability, T/C (second compound 3.16 µM, first compound 0.01 µM): 87.1%
- viability, T/C [17]: 83.8%
- viability, T/C [18]: 70.6%
- viability, T/C [19]: 60.4%
- viability, T/C [20]: 51.5%
- viability, T/C (second compound 10 µM, first compound 0.00316 µM): 116%
- viability, T/C (second compound 10 µM, first compound 0.01 µM): 127%
- viability, T/C [21]: 97.1%
- viability, T/C [22]: 80.3%
- viability, T/C [23]: 64.3%
- viability, T/C [24]: 46.4%

Compound: Nc1ccn(C2OC(CO)C(O)C2(F)F)c(=O)n1 (stereo unspecified) + Nc1ccc(C#CCN(C(=O)Cc2ncc(C(F)(F)F)cc2C(F)(F)F)c2ccc(F)cc2)nn1
- pIC50 (second compound 0.0316 µM): < 5.00
- pIC50 (second compound 0.1 µM): < 5.00
- pIC50 (second compound 0.316 µM): < 5.00
- pIC50 (second compound 1 µM): < 5.00
- pIC50 (second compound 3.16 µM): < 5.00
- pIC50 (second compound 10 µM): < 5.00
- viability, T/C [1]: 118%
- viability, T/C [2]: 128%
- viability, T/C [3]: 122%
- viability, T/C [4]: 83.3%
- viability, T/C [25]: 84.4%
- viability, T/C [26]: 68.4%
- viability, T/C [5]: 101%
- viability, T/C [6]: 112%
- viability, T/C [7]: 109%
- viability, T/C [8]: 101%
- viability, T/C [27]: 80.4%
- viability, T/C [28]: 65.4%
- viability, T/C [9]: 115%
- viability, T/C [10]: 98.8%
- viability, T/C [11]: 107%
- viability, T/C [12]: 95.7%
- viability, T/C [29]: 83%
- viability, T/C [30]: 56.2%
- viability, T/C [13]: 104%
- viability, T/C [14]: 93.8%
- viability, T/C [15]: 108%
- viability, T/C [16]: 92.6%
- viability, T/C [31]: 81%
- viability, T/C [32]: 67.7%
- viability, T/C [17]: 115%
- viability, T/C [18]: 116%
- viability, T/C [19]: 117%
- viability, T/C [20]: 107%
- viability, T/C [33]: 108%
- viability, T/C [34]: 78.8%
- viability, T/C [21]: 124%
- viability, T/C [22]: 120%
- viability, T/C [23]: 127%
- viability, T/C [24]: 124%
- viability, T/C [35]: 114%
- viability, T/C [36]: 90.5%

Compound: O=c1[nH]cc(F)c(=O)[nH]1 + Nc1ccc(C#CCN(C(=O)Cc2ncc(C(F)(F)F)cc2C(F)(F)F)c2ccc(F)cc2)nn1
- pIC50 (second compound 0.0316 µM): < 5.00
- pIC50 (second compound 0.1 µM): < 5.00
- pIC50 (second compound 0.316 µM): < 5.00
- pIC50 (second compound 1 µM): < 5.00
- pIC50 (second compound 3.16 µM): < 5.00
- pIC50 (second compound 10 µM): < 5.00
- viability, T/C [1]: 115%
- viability, T/C [2]: 107%
- viability, T/C [3]: 142%
- viability, T/C [4]: 117%
- viability, T/C [25]: 89.9%
- viability, T/C [26]: 95.1%
- viability, T/C [5]: 107%
- viability, T/C [6]: 126%
- viability, T/C [7]: 109%
- viability, T/C [8]: 91.6%
- viability, T/C [27]: 95.1%
- viability, T/C [28]: 94.5%
- viability, T/C [9]: 118%
- viability, T/C [10]: 98%
- viability, T/C [11]: 111%
- viability, T/C [12]: 99.1%
- viability, T/C [29]: 87.5%
- viability, T/C [30]: 90.7%
- viability, T/C [13]: 106%
- viability, T/C [14]: 103%
- viability, T/C [15]: 116%
- viability, T/C [16]: 108%
- viability, T/C [31]: 112%
- viability, T/C [32]: 95.1%
- viability, T/C [17]: 119%
- viability, T/C [18]: 122%
- viability, T/C [19]: 121%
- viability, T/C [20]: 118%
- viability, T/C [33]: 98.8%
- viability, T/C [34]: 85.9%
- viability, T/C [21]: 123%
- viability, T/C [22]: 128%
- viability, T/C [23]: 124%
- viability, T/C [24]: 134%
- viability, T/C [35]: 90%
- viability, T/C [36]: 111%
